Reference: patent publication US8247211B2, “Glycopeptide antibiotics” (American Cyanamid Company, priority 2001, dated 2012)
Converted amounts (≈) assume the structure as drawn.

Experiments:
Assay in all cases: In vitro antibacterial evaluation: minimum inhibitory concentration (MIC), broth dilution method
Format in all cases: cell-based
Enterococcus sp. = tested on: Enterococcus sp.
In short: (§1)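 Values are minimum inhibitory concentrations, meaning the smallest antibiotic concentration that stops growth of the organism. They come from broth dilution in Muller-Hinton II […] per NCCLS guidance (M7-A2), using 5×10^5 CFU/mL and concentrations from 64 to 0.06 μg/mL.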

Escherichia coli = tested on: Escherichia coli
In short: as §1

Streptococcus sp. = tested on: Streptococcus sp.
In short: as §1

Staphylococcus sp. = conditions: broth dilution, 18 hours at 35° C.
In short: as §1

[1] = broth dilution, inoculum 5×10^5 CFU/mL, 18 hours at 35° C.

In the case of CC(c1ccccc1)C1NC(=O)CNC(=O)C(CO)NC(=O)C(C(O)C2CNC(=N)N2C2OC(CO)C(O)C(O)C2O)NC(=O)C(C(O)C2CNC(=N)N2)NC(=O)C(Cc2ccc(OC3OC(CO)C(OC4OC5COC(c6ccc(S(C)(=O)=O)cc6)OC5C(O)C4O)C(O)C3O)cc2)NC1=O (stereo not drawn) [Example 157, Cyclo[glycyl-β-methylphenylalanyl-O-[4-O-[4,6-O-(4-(methylsulfonyl)benzylidene)hexopyranosyl]hexopyranosyl]tyrosyl-3-(2-iminoimidazolidin-4-yl)seryl-3-(3-hexopyranosyl-2-iminoimidazolidin-4-yl)serylseryl]], the “MIC Enterococcus avium (GC 4558)” value (Enterococcus sp.; [1]) is reported as 64 µg/mL (≈ 43.8 µM), the “MIC Enterococcus faecalis (ATCC 29212)” value (Enterococcus sp.; [1]) is reported as greater than 64 µg/mL and the “MIC Enterococcus faecalis (GC 4552)” value (Enterococcus sp.; [1]) is reported as greater than 64 µg/mL. The “MIC Enterococcus faecalis (GC 4553)” value (Enterococcus sp.; [1]) was greater than 64 µg/mL, the “MIC Enterococcus faecalis (GC 4554)” value (Enterococcus sp.; [1]) was greater than 64 µg/mL and the “MIC Enterococcus faecalis (GC 6189)” value (Enterococcus sp.; [1]) was greater than 64 µg/mL. The “MIC Enterococcus faecium (GC 2243)” value (Enterococcus sp.; [1]) was 64 µg/mL (≈ 43.8 µM), the “MIC Enterococcus faecium (GC 4556)” value (Enterococcus sp.; [1]) was greater than 64 µg/mL and the “MIC Enterococcus faecium (GC 4557)” value (Enterococcus sp.; [1]) was 8 µg/mL (≈ 5.47 µM). The “MIC Enterococcus faecalis (ATCC 29212)” value (Enterococcus sp.; strain ATCC 29212) was greater than 64 µg/mL, the “MIC Enterococcus faecalis (GC 2242)” value (Enterococcus sp.; strain GC 2242) was 64 µg/mL (≈ 43.8 µM) and the “MIC Enterococcus faecium (GC 2243)” value (Enterococcus sp.; strain GC 2243) was 64 µg/mL (≈ 43.8 µM). For the same compound, the “MIC Enterococcus faecalis (GC 2691)” value (Enterococcus sp.; strain GC 2691) was greater than 64 µg/mL, the “MIC Enterococcus faecalis (GC 3059)” value (Enterococcus sp.; strain GC 3059) was greater than 64 µg/mL and the “MIC Enterococcus faecalis (GC 4552)” value (Enterococcus sp.; strain GC 4552) was greater than 64 µg/mL. The “MIC Enterococcus faecalis (GC 4553)” value (Enterococcus sp.; strain GC 4553) was greater than 64 µg/mL, the “MIC Enterococcus faecalis (GC 4554)” value (Enterococcus sp.; strain GC 4554) was greater than 64 µg/mL and the “MIC Enterococcus faecium (GC 4556)” value (Enterococcus sp.; strain GC 4556) was greater than 64 µg/mL. The “MIC Enterococcus faecium (GC 4557)” value (Enterococcus sp.; strain GC 4557) was 8 µg/mL (≈ 5.47 µM), the “MIC Enterococcus avium (GC 4558)” value (Enterococcus sp.; strain GC 4558) was 64 µg/mL (≈ 43.8 µM) and the “MIC Enterococcus faecalis (GC 6189)” value (Enterococcus sp.; strain GC 6189) was greater than 64 µg/mL. The “MIC Escherichia coli (ATCC 25922)” value (Escherichia coli; strain ATCC 25922) was greater than 64 µg/mL, the “MIC Escherichia coli (GC 4559)” value (Escherichia coli; strain GC 4559) was greater than 64 µg/mL and the “MIC Streptococcus pneumoniae (ATCC 6301)” value (Streptococcus sp.; strain ATCC 6301) was 4 µg/mL (≈ 2.74 µM). The “MIC Streptococcus pneumoniae (GC 1894)” value (Streptococcus sp.; strain GC 1894) was 4 µg/mL (≈ 2.74 µM), the “MIC Streptococcus pyogenes (GC 4563)” value (Streptococcus sp.; strain GC 4563) was 8 µg/mL (≈ 5.47 µM) and the “MIC Streptococcus agalactiae (GC 4564)” value (Streptococcus sp.; strain GC 4564) was 16 µg/mL (≈ 10.9 µM). For the same compound, the “MIC Streptococcus pneumoniae (GC 4565)” value (Streptococcus sp.; strain GC 4565) was 4 µg/mL (≈ 2.74 µM), the “MIC Coagulase Negative Staphylococcus (GC 4547)” value (Staphylococcus sp.; 5×10^5 CFU/mL) was 16 µg/mL (≈ 10.9 µM) and the “MIC Coagulase Negative Staphylococcus (GC 4548)” value (Staphylococcus sp.; 5×10^5 CFU/mL) was 8 µg/mL (≈ 5.47 µM). For the same compound, the “MIC Coagulase Negative Staphylococcus (GC 4549)” value (Staphylococcus sp.; 5×10^5 CFU/mL) was 8 µg/mL (≈ 5.47 µM), the “MIC Coagulase Negative Staphylococcus (GC 4551)” value (Staphylococcus sp.; 5×10^5 CFU/mL) was 32 µg/mL (≈ 21.9 µM) and the “MIC Coagulase Negative Staphylococcus (GC 6257)” value (Staphylococcus sp.; 5×10^5 CFU/mL) was 4 µg/mL (≈ 2.74 µM). For the same compound, the “MIC Staphylococcus aureus (ATCC 29213)” value (Staphylococcus sp.; 5×10^5 CFU/mL) was 32 µg/mL (≈ 21.9 µM), the “MIC Staphylococcus aureus (GC 1131)” value (Staphylococcus sp.; 5×10^5 CFU/mL) was 32 µg/mL (≈ 21.9 µM) and the “MIC Staphylococcus aureus (GC 3051)” value (Staphylococcus sp.; 5×10^5 CFU/mL) was 16 µg/mL (≈ 10.9 µM). For the same compound, the “MIC Staphylococcus aureus (GC 3053)” value (Staphylococcus sp.; 5×10^5 CFU/mL) was 32 µg/mL (≈ 21.9 µM), the “MIC Staphylococcus aureus (GC 4541)” value (Staphylococcus sp.; 5×10^5 CFU/mL) was 16 µg/mL (≈ 10.9 µM) and the “MIC Staphylococcus aureus (GC 4542)” value (Staphylococcus sp.; 5×10^5 CFU/mL) was 32 µg/mL (≈ 21.9 µM). For the same compound, the “MIC Staphylococcus aureus (GC 4544)” value (Staphylococcus sp.; 5×10^5 CFU/mL) was 32 µg/mL (≈ 21.9 µM), the “MIC Staphylococcus aureus (GC 4545)” value (Staphylococcus sp.; 5×10^5 CFU/mL) was 16 µg/mL (≈ 10.9 µM) and the “MIC Staphylococcus aureus-SMITH (GC 4543)” value (Staphylococcus sp.; 5×10^5 CFU/mL) was 16 µg/mL (≈ 10.9 µM). The “MIC Staphylococcus haemolyticus (GC 4546)” value (Staphylococcus sp.; 5×10^5 CFU/mL) was 16 µg/mL (≈ 10.9 µM), the “MIC Staphylococcus aureus (ATCC 29213)” value (Staphylococcus sp.; strain ATCC 29213) was 32 µg/mL (≈ 21.9 µM) and the “MIC Staphylococcus aureus (GC 1131)” value (Staphylococcus sp.; strain GC 1131) was 32 µg/mL (≈ 21.9 µM). For the same compound, the “MIC Staphylococcus aureus (GC 3051)” value (Staphylococcus sp.; strain GC 3051) was 16 µg/mL (≈ 10.9 µM), the “MIC Staphylococcus aureus (GC 3053)” value (Staphylococcus sp.; strain GC 3053) was 32 µg/mL (≈ 21.9 µM) and the “MIC Staphylococcus aureus (GC 4541)” value (Staphylococcus sp.; strain GC 4541) was 16 µg/mL (≈ 10.9 µM). The “MIC Staphylococcus aureus (GC 4542)” value (Staphylococcus sp.; strain GC 4542) was 32 µg/mL (≈ 21.9 µM), the “MIC Staphylococcus aureus-SMITH (GC 4543)” value (Staphylococcus sp.; strain GC 4543) was 16 µg/mL (≈ 10.9 µM) and the “MIC Staphylococcus aureus (GC 4544)” value (Staphylococcus sp.; strain GC 4544) was 32 µg/mL (≈ 21.9 µM). For the same compound, the “MIC Staphylococcus aureus (GC 4545)” value (Staphylococcus sp.; strain GC 4545) was 16 µg/mL (≈ 10.9 µM), the “MIC Staphylococcus haemolyticus (GC 4546)” value (Staphylococcus sp.; strain GC 4546) was 16 µg/mL (≈ 10.9 µM) and the “MIC Coagulase Negative Staphylococcus (GC 4547)” value (Staphylococcus sp.; strain GC 4547) was 16 µg/mL (≈ 10.9 µM). For the same compound, the “MIC Coagulase Negative Staphylococcus (GC 4548)” value (Staphylococcus sp.; strain GC 4548) was 8 µg/mL (≈ 5.47 µM), the “MIC Coagulase Negative Staphylococcus (GC 4549)” value (Staphylococcus sp.; strain GC 4549) was 8 µg/mL (≈ 5.47 µM) and the “MIC Coagulase Negative Staphylococcus (GC 4551)” value (Staphylococcus sp.; strain GC 4551) was 32 µg/mL (≈ 21.9 µM). For the same compound, the “MIC Coagulase Negative Staphylococcus (GC 6257)” value (Staphylococcus sp.; strain GC 6257) was 4 µg/mL (≈ 2.74 µM).
